The assay deals with T1, recombinant human NK3 receptor (Homo sapiens, UniProt P29371).
T1 construct: expressed in transfected cells; host or cells: HEK293 cells (transient expression), membranes
T1 sequence (P29371 1-465): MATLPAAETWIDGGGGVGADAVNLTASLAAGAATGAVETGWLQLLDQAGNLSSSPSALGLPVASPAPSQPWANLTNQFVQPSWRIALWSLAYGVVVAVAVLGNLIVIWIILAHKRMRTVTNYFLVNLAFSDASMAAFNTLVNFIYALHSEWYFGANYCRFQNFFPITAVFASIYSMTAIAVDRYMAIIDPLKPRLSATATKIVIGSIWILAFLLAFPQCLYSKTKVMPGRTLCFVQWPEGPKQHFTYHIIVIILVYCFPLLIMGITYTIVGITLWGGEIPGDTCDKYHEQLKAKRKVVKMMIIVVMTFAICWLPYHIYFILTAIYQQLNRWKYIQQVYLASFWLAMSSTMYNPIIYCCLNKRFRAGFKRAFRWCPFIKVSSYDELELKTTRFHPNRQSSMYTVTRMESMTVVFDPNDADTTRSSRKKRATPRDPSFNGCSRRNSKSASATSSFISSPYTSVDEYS
The experiment in a line: [3H]SR142801 competition binding assay. Conditions: membranes from HEK293 cells transiently expressing hNK3; [3H]SR142801 at its KD; 75 min RT; read-out: Data [μM] (affinity constant Ki, hNK3 receptor binding). Here is the method:
[^3H]SR142801 Competition Binding Assay
hNK3 receptor binding experiment were performed using [^3H]SR142801 (Catalog No. TRK1035, specific activity: 74.0 Ci/mmol, Amersham, GE Healthcare UK limited, Buckinghamshire, UK) and membrane isolated from HEK293 cells transiently expressing recombinant human NK3 receptor. After thawing, the membrane homogenates were centrifuged at 48,000×g for 10 min at 4° C., the pellets were resuspended in the 50 mM Tris-HCl, 4 mM MnCl2, 1 μM phosphoramidon, 0.1% BSA binding buffer at pH 7.4 to a final assay concentration of 5 μg protein/well. […] At the end of the incubation, membranes were filtered onto unitfilter (96-well white microplate with bonded GF/C filter preincubated 1 h in 0.3% PEI+0.3% BSA, Packard BioScience, Meriden, Conn.) with a Filtermate 196 harvester (Packard BioScience) and washed 4 times with ice-cold 50 mM Tris-HCl, pH 7.4 buffer. Nonspecific binding was measured in the presence of 10 μM SB222200 for both radioligands. The radioactivity on the filter was counted (5 min) on a Packard Top-count microplate scintillation counter with quenching correction after addition of 45 μl of microscint 40 (Can berra Packard S. A., Zürich, Switzerland) and shaking for 1 h. Inhibition curves were fitted according to the Hill equation: y=100/(1+(x/IC50)^nH), where nH=slope factor using Excel-fit 4 software (Microsoft). IC50 values were derived from the inhibition curve and the affinity constant (Ki) values were calculated using the Cheng-Prussoff equation Ki=IC50/(1+[L]/KD) where [L] is the concentration of radioligand and KD is its dissociation constant at the receptor, derived from the saturation isotherm. All experiments were performed in duplicate and the mean±standard error (SEM) of the individual Ki values was calculated.

Broadly, the Ki is a measure of affinity in units of concentration, obtained from inhibition or displacement. With `C[C@H](Oc1ccc(C#N)cn1)[C@H]1CN(C(=O)[C@H]2CC[C@H](N(C)C(=O)OC(C)(C)C)CC2)C[C@@H]1c1ccc(Cl)c(Cl)c1` (racemic) [Example 42, {4-[(3RS,4SR)-3-[(SR)-1-(5-Cyano-pyridin-2-yloxy)-ethyl]-4-(3,4-dichloro-phenyl)-pyrrolidine-1-carbonyl]-cyclohexyl}-methyl-carbamic acid tert-butyl ester], the Ki came to 0.0028 µM.

For `COC[C@H]1CC[C@H](C(=O)N2C[C@H]([C@H](C)Oc3ccc(Cl)cn3)[C@@H](c3ccc(Cl)c(Cl)c3)C2)CC1` (racemic) [Example 6, [(3RS,4SR)-3-[(SR)-1-(5-Chloro-pyridin-2-yloxy)-ethyl]-4-(3,4-dichloro-phenyl)-pyrrolidin-1-yl]-(4-methoxymethyl-cyclohexyl)-methanone], the Ki came to 0.0058 µM.

For `C[C@H](Oc1ccc(Cl)cn1)[C@H]1CN(C(=O)C2CCN(C(=O)C3(C)CC3)CC2)C[C@@H]1c1ccc(F)cc1F` (racemic) [Example 48, [(3RS,4SR)-3-[(SR)-1-(5-Chloro-pyridin-2-yloxy)-ethyl]-4-(2,4-difluoro-phenyl)-pyrrolidin-1-yl]-[1-(1-methyl-cyclopropanecarbonyl)-piperidin-4-yl]-methanone], the Ki was 0.0074 µM.

`COC(=O)N[C@H]1CC[C@H](C(=O)N2C[C@H]([C@H](C)Oc3ccc(Cl)cn3)[C@@H](c3ccc(Cl)c(Cl)c3)C2)CC1` (racemic) [Example 5, {4-[(3RS,4SR)-3-[(SR)-1-(5-Chloro-pyridin-2-yloxy)-ethyl]-4-(3,4-dichloro-phenyl)-pyrrolidine-1-carbonyl]-cyclohexyl}-carbamic acid methyl ester]: the Ki turned out to be 0.0095 µM.

As to `CCC(=O)N1CCC(C(=O)N2C[C@H]([C@H](C)Oc3ccc(C#N)cn3)[C@@H](c3ccc(Cl)c(Cl)c3)C2)CC1` (racemic) [Example 22, 6-{(SR)-1-[(3RS,4SR)-4-(3,4-Dichloro-phenyl)-1-(1-propionyl-piperidine-4-carbonyl)-pyrrolidin-3-yl]-ethoxy}-nicotinonitrile], the Ki stood at 0.0036 µM.

For the compound `COCC(=O)N1CCC(C(=O)N2C[C@H]([C@H](C)Oc3ccc(C#N)cn3)[C@@H](c3ccc(Cl)c(Cl)c3)C2)CC1` (racemic) [Example 24, 6-((SR)-1-{(3RS,4SR)-4-(3,4-Dichloro-phenyl)-1-[1-(2-methoxy-acetyl)-piperidine-4-carbonyl]-pyrrolidin-3-yl}-ethoxy)-nicotinonitrile], the inhibition constant (Ki) came to 0.0036 µM.

Regarding `CC(=O)N1CCC(C(=O)N2C[C@H]([C@H](C)Oc3ccc(Cl)cn3)[C@@H](c3ccc(Cl)c(Cl)c3)C2)CC1` (racemic) [Example 1, 1-{4-[(3RS,4SR)-3-[(SR)-1-(5-Chloro-pyridin-2-yloxy)-ethyl]-4-(3,4-dichloro-phenyl)-pyrrolidine-1-carbonyl]-piperidin-1-yl}-ethanone], the Ki was found to be 0.0047 µM.

As for `C[C@H](Oc1ccc(C#N)cn1)[C@H]1CN(C(=O)C2CCN(C(=O)C3CC3)CC2)C[C@@H]1c1ccc(Cl)c(Cl)c1` (racemic) [Example 14, 6-{(SR)-1-[(3RS,4SR)-1-(1-Cyclopropanecarbonyl-piperidine-4-carbonyl)-4-(3,4-dichloro-phenyl)-pyrrolidin-3-yl]-ethoxy}-nicotinonitrile], the Ki amounted to 0.0049 µM.

Consider `C[C@H](Oc1ccc(C#N)cn1)[C@H]1CN(C(=O)C2CCN(C(=O)C3CC(=O)C3)CC2)C[C@@H]1c1ccc(Cl)c(Cl)c1` (racemic) [Example 21, 6-((SR)-1-{(3RS,4SR)-4-(3,4-Dichloro-phenyl)-1-[1-(3-oxo-cyclobutanecarbonyl)-piperidine-4-carbonyl]-pyrrolidin-3-yl}-ethoxy)-nicotinonitrile], for which the Ki was 0.0021 µM.

Take `C[C@H](Oc1ccc(C#N)cn1)[C@H]1CN(C(=O)[C@H]2CC[C@H](NC(=O)OC(C)(C)C)CC2)C[C@@H]1c1ccc(Cl)c(Cl)c1` (racemic) [Example 43, {4-[(3RS,4SR)-3-[(SR)-1-(5-Cyano-pyridin-2-yloxy)-ethyl]-4-(3,4-dichloro-phenyl)-pyrrolidine-1-carbonyl]-cyclohexyl}-carbamic acid tert-butyl ester]: the Ki is 0.007 µM.

Take `C[C@H](Oc1ccc(C#N)cn1)[C@H]1CN(C(=O)C2CCN(C(=O)C3(C)CC3)CC2)C[C@@H]1c1ccc(Cl)c(Cl)c1` (racemic) [Example 17, 6-((SR)-1-{(3RS,4SR)-4-(3,4-Dichloro-phenyl)-1-[1-(1-methyl-cyclopropanecarbonyl)-piperidine-4-carbonyl]-pyrrolidin-3-yl}-ethoxy)-nicotinonitrile]: the Ki amounted to 0.0046 µM.

For `C[C@H](Oc1ccc(C#N)cn1)[C@H]1CN(C(=O)C2CCN(C(=O)C3(N)CC3)CC2)C[C@@H]1c1ccc(Cl)c(Cl)c1` (racemic) [Example 19, 6-{(SR)-1-[(3RS,4SR)-1-[1-(1-Amino-cyclopropanecarbonyl)-piperidine-4-carbonyl]-4-(3,4-dichloro-phenyl)-pyrrolidin-3-yl]-ethoxy}-nicotinonitrile], the Ki stood at 0.0077 µM.

For `C[C@H](Oc1ccc(C#N)cn1)[C@H]1CN(C(=O)C2CCN(C(=O)C3(C)CC3)CC2)C[C@@H]1c1ccc(Cl)c(Cl)c1` (racemic) [Example 47, 6-((SR)-1-{(3RS,4SR)-4-(3,4-Dichloro-phenyl)-1-[1-(1-methyl-cyclopropanecarbonyl)-piperidine-4-carbonyl]-pyrrolidin-3-yl}-ethoxy)-nicotinonitrile], the inhibition constant Ki amounted to 0.0019 µM.

With `C[C@H](Oc1ccc(C#N)cn1)[C@H]1CN(C(=O)C2CCN(C(=O)C3CCC3)CC2)C[C@@H]1c1ccc(Cl)c(Cl)c1` (racemic) [Example 20, 6-{(SR)-1-[(3RS,4SR)-1-(1-Cyclobutanecarbonyl-piperidine-4-carbonyl)-4-(3,4-dichloro-phenyl)-pyrrolidin-3-yl]-ethoxy}-nicotinonitrile], the Ki amounted to 0.0026 µM.

For `CC(C)CN1CCC(C(=O)N2C[C@H]([C@H](C)Oc3ccc(Cl)cn3)[C@@H](c3ccc(Cl)c(Cl)c3)C2)CC1` (racemic) [Example 11, [(3RS,4SR)-3-[(SR)-1-(5-Chloro-pyridin-2-yloxy)-ethyl]-4-(3,4-dichloro-phenyl)-pyrrolidin-1-yl]-(1-isobutyl-piperidin-4-yl)-methanone], the Ki is 0.0061 µM.

Regarding `CC(=O)N1CCC(C(=O)N2C[C@H]([C@H](C)Oc3ccc(C(F)(F)F)cn3)[C@@H](c3ccc(Cl)c(Cl)c3)C2)CC1` (racemic) [Example 46, 1-(4-{(3SR,4RS)-3-(3,4-Dichloro-phenyl)-4-[(SR)-1-(5-trifluoromethyl-pyridin-2-yloxy)-ethyl]-pyrrolidine-1-carbonyl}-piperidin-1-yl)-ethanone], the Ki worked out at 0.0018 µM.

As to `C#C[C@H]1CC[C@H](C(=O)N2C[C@H]([C@H](C)Oc3ccc(Cl)cn3)[C@@H](c3ccc(Cl)c(Cl)c3)C2)CC1` (racemic) [Example 10, [(3RS,4SR)-3-[(SR)-1-(5-Chloro-pyridin-2-yloxy)-ethyl]-4-(3,4-dichloro-phenyl)-pyrrolidin-1-yl]-(4-ethynyl-cyclohexyl)-methanone], the Ki turned out to be 0.009 µM.

Regarding `C[C@H](Oc1ccc(Cl)cn1)[C@H]1CN(C(=O)C2CCN(C(=O)C3CCC3)CC2)C[C@@H]1c1ccc(Cl)c(Cl)c1` (racemic) [Example 3, [(3RS,4SR)-3-[(SR)-1-(5-Chloro-pyridin-2-yloxy)-ethyl]-4-(3,4-dichloro-phenyl)-pyrrolidin-1-yl]-(1-cyclobutanecarbonyl-piperidin-4-yl)-methanone], the Ki was determined as 0.0012 µM.

As for `CC(=O)N(C)[C@H]1CC[C@H](C(=O)N2C[C@H]([C@H](C)Oc3ccc(C#N)cn3)[C@@H](c3ccc(Cl)c(Cl)c3)C2)CC1` (racemic) [Example 45, N-{4-[(3RS,4SR)-3-[(SR)-1-(5-Cyano-pyridin-2-yloxy)-ethyl]-4-(3,4-dichloro-phenyl)-pyrrolidine-1-carbonyl]-cyclohexyl}-N-methyl-acetamide], the Ki was 0.004 µM.

The record behind these values is US8063075B2, “Pyrrolidine ether derivatives as NK3 receptor antagonists” (Hoffmann-La Roche Inc., priority 2008, dated 2011).
